Measured values from patent publication US10023564B2, “G protein-coupled receptor kinase 2 inhibitors and methods for use of the same” (THE REGENTS OF THE UNIVERSITY OF MICHIGAN, priority 2014, dated 2018).

Each compound was assayed against GRK2 (Homo sapiens (Human), UniProt P25098) (assay: GRK2 kinetic assay (phosphorylation of bROS or tubulin, phosphorimaging)). Settings: 50 nM GRK, 5 μM ATP, 5 min reaction.
Type: biochemical
Description: The low salt concentration and DDM were used to maximize GRK activity and disrupt small molecule aggregates from forming, respectively. […] Data was analyzed and inhibition curves were fit via GraphPad Prism.

Chain of GRK2 (P25098 whole entry, species assumed): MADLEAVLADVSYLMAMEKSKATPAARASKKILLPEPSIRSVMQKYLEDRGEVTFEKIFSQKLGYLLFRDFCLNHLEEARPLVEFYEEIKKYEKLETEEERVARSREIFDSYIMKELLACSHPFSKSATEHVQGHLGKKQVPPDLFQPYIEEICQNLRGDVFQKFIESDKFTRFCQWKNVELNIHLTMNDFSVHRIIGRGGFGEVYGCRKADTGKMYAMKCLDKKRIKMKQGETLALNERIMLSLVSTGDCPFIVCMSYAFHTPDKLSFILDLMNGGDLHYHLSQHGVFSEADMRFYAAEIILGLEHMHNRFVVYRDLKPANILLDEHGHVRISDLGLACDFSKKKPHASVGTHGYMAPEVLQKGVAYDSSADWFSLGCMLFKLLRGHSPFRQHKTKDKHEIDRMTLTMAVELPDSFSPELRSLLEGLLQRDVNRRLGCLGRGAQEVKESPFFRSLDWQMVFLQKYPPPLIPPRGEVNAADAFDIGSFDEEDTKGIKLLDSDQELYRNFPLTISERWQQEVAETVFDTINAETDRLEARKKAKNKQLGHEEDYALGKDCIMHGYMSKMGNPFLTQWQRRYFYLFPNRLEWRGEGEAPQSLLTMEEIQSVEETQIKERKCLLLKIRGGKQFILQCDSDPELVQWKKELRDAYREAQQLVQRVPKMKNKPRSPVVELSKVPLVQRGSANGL

| IC50 [nM] | Compound |
| --- | --- |
| 960 | C#CCN(Cc1ccco1)C(=O)Cc1cc(C2NC(=O)NC(C)=C2C(=O)Nc2ccc3[nH]ncc3c2)ccc1F (stereo not drawn) [Example E35, 4-(4-fluoro-3-(2-((furan-2-ylmethyl)(prop-2-yn-1-yl)amino)-2-oxoethyl)phenyl)-N-(1H-indazol-5-yl)-6-methyl-2-oxo-1,2,3,4-tetrahydropyrimidine-5-carboxamide] |
| 7000 | CC1=C(C(=O)Nc2ccc3[nH]ncc3c2)C(c2ccc(F)c(CCC(=O)NCCc3ccccc3)c2)NC(=O)N1 (stereo not drawn) [Example E38, 4-(4-fluoro-3-(3-oxo-3-(phenethylamino)propyl)phenyl)-N-(1H-indazol-5-yl)-6-methyl-2-oxo-1,2,3,4-tetrahydropyrimidine-5-carboxamide] |
| 51000 | CCC(C)N(C)C(=O)c1cc(C2NC(=O)NC(C)=C2C(=O)Nc2ccc3[nH]ncc3c2)ccc1F (stereo not drawn) [Example E19, 4-(3-(sec-butyl(methyl)carbamoyl)-4-fluorophenyl)-N-(1H-indazol-5-yl)-6-methyl-2-oxo-1,2,3,4-tetrahydropyrimidine-5-carboxamide] |
| 1200 | CC1=C(C(=O)Nc2ccc3[nH]ncc3c2)C(c2ccc(F)c(C(=O)N(C)Cc3cc(C)[nH]n3)c2)NC(=O)N1 (stereo not drawn) [Example E26, 4-(4-fluoro-3-(methyl((5-methyl-1H-pyrazol-3-yl)methyl)carbamoyl)phenyl)-N-(1H-indazol-5-yl)-6-methyl-2-oxo-1,2,3,4-tetrahydropyrimidine-5-carboxamide] |
| 1500 | CC1=C(C(=O)Nc2ccc3[nH]ncc3c2)C(c2ccc(F)c(CC(=O)N3CCOC(CCO)C3)c2)NC(=O)N1 (stereo not drawn) [Example E31, 4-(4-fluoro-3-(2-(2-(2-hydroxyethyl)morpholino)-2-oxoethyl)phenyl)-N-(1H-indazol-5-yl)-6-methyl-2-oxo-1,2,3,4-tetrahydropyrimidine-5-carboxamide] |
| 4000 | CC1=C(C(=O)Nc2ccc3[nH]ncc3c2)C(c2ccc(F)c(CCC(=O)NCc3ncc(C)o3)c2)NC(=O)N1 (stereo not drawn) [Example E37, 4-(4-fluoro-3-(3-(((5-methyloxazol-2-yl)methyl)amino)-3-oxopropyl)phenyl)-N-(1H-indazol-5-yl)-6-methyl-2-oxo-1,2,3,4-tetrahydropyrimidine-5-carboxamide] |
| 740 | CC1=C(C(=O)Nc2ccc3[nH]ncc3c2)C(c2ccc(F)c(C(=O)NCC(C)N3CCCCCC3)c2)NC(=O)N1 (stereo not drawn) [Example E20, 4-(3-((2-(azepan-1-yl)propyl)carbamoyl)-4-fluorophenyl)-N-(1H-indazol-5-yl)-6-methyl-2-oxo-1,2,3,4-tetrahydropyrimidine-5-carboxamide] |
| 14600 | CC1=C(C(=O)Nc2ccc3[nH]ncc3c2)C(c2ccc(F)c(C(=O)N(C)CC3CCCCO3)c2)NC(=O)N1 (stereo not drawn) [Example E21, 4-(4-fluoro-3-(methyl((tetrahydro-2H-pyran-2-yl)methyl)carbamoyl)phenyl)-N-(1H-indazol-5-yl)-6-methyl-2-oxo-1,2,3,4-tetrahydropyrimidine-5-carboxamide] |

The compounds below were run against ROCK1 (Homo sapiens (Human), UniProt Q13464) (assay: Rho-associated coiled-coil kinase (ROCK) assay, ADP-Glo system). Settings: 0.1 μg ROCK1, 1 μg S6K substrate, 100 μM ATP, 60 min.
Type: biochemical
Description: Rho-associated coiled-coil kinase (ROCK) assays were performed with the ADP-Glo system using 0.1 μg ROCK1 and 1 μg S6K substrate, and 100 μM ATP for 60 min prior to addition of ADP-GLO Reagent, and allowed to incubate for an additional 40 min prior to the addition of the Kinase Detection Reagent and imaging on a PHERASTAR system.

Chain of ROCK1 (Q13464 whole entry, species assumed): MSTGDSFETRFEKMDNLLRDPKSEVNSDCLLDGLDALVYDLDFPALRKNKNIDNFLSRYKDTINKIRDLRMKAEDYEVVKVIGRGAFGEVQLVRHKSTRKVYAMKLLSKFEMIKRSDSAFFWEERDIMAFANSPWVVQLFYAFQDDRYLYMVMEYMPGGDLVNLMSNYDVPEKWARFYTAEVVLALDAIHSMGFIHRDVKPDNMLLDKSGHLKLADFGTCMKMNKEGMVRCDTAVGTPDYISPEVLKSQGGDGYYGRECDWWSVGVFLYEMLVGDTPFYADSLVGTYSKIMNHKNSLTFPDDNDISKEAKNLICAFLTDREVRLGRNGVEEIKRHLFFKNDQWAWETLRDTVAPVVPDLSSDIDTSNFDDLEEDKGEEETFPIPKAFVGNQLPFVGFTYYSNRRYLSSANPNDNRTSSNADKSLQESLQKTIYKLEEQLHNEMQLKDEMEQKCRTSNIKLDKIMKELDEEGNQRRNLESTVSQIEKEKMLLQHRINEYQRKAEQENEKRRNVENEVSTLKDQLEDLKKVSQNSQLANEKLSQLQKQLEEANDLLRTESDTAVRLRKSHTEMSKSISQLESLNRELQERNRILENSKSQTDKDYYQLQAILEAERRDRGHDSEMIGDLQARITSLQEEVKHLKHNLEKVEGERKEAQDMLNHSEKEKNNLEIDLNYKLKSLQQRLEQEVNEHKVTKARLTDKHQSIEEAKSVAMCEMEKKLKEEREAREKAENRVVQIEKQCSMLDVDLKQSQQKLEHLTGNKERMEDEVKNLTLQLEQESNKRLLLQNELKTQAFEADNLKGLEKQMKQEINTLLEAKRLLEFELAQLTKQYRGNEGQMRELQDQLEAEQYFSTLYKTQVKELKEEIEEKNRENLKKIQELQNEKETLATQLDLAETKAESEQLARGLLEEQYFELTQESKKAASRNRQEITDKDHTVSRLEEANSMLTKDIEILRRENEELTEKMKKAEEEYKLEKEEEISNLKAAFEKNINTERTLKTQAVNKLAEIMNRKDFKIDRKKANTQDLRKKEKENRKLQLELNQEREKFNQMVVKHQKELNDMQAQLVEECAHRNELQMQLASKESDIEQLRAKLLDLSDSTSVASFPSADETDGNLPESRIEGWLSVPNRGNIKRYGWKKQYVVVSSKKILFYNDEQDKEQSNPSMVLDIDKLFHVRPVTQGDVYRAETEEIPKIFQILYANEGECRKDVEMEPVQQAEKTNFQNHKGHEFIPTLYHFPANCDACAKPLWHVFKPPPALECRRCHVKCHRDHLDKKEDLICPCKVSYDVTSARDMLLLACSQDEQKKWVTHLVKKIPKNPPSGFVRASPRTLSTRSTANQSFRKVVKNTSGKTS

| Compound | IC50 [nM] |
| --- | --- |
| COc1cccc(OC)c1CNC(=O)c1cc(C2NC(=O)NC(C)=C2C(=O)Nc2ccc3[nH]ncc3c2)ccc1F (stereo not drawn) [Example E11, 4-(3-((2,6-dimethoxybenzyl)carbamoyl)-4-fluorophenyl)-N-(1H-indazol-5-yl)-6-methyl-2-oxo-1,2,3,4-tetrahydropyrimidine-5-carboxamide] | > 10000 |
| CC1=C(C(=O)Nc2ccc3[nH]ncc3c2)C(c2ccc(F)c(C(=O)NCc3c(C(F)(F)F)cccc3C(F)(F)F)c2)NC(=O)N1 (stereo not drawn) [Example E17, 4-(3-((2,6-bis(trifluoromethyl)benzyl)carbamoyl)-4-fluorophenyl)-N-(1H-indazol-5-yl)-6-methyl-2-oxo-1,2,3,4-tetrahydropyrimidine-5-carboxamide] | > 10000 |
| CC1=C(C(=O)Nc2ccc3[nH]ncc3c2)C(c2ccc(F)c(C(=O)NCCc3ccncc3)c2)NC(=O)N1 (stereo not drawn) [Example E07, 4-(4-fluoro-3-((2-(pyridin-4-yl)ethyl)carbamoyl)phenyl)-N-(1H-indazol-5-yl)-6-methyl-2-oxo-1,2,3,4-tetrahydropyrimidine-5-carboxamide] | > 100000 |

Further lines, results first:

| IC50 [nM] | Compound |
| --- | --- |
| 450 | CC1=C(C(=O)Nc2ccc3[nH]ncc3c2)C(c2ccc(F)c(CC(=O)NCc3c(C)cccc3C)c2)NC(=O)N1 (stereo not drawn) [Example E28, 4-(3-(2-((2,6-dimethylbenzyl)amino)-2-oxoethyl)-4-fluorophenyl)-N-(1H-indazol-5-yl)-6-methyl-2-oxo-1,2,3,4-tetrahydropyrimidine-5-carboxamide] |
| 6700 | CC1=C(C(=O)Nc2ccc3[nH]ncc3c2)C(c2ccc(F)c(C(=O)NCc3c(Cl)cccc3Cl)c2)NC(=O)N1 (stereo not drawn) [Example E09, 4-(3-((2,6-dichlorobenzyl)carbamoyl)-4-fluorophenyl)-N-(1H-indazol-5-yl)-6-methyl-2-oxo-1,2,3,4-tetrahydropyrimidine-5-carboxamide] |
| 200 | COc1cccc(OC)c1CNC(=O)Cc1cc(C2NC(=O)NC(C)=C2C(=O)Nc2ccc3[nH]ncc3c2)ccc1F (stereo not drawn) [Example E30, 4-(3-(2-((2,6-dimethoxybenzyl)amino)-2-oxoethyl)-4-fluorophenyl)-N-(1H-indazol-5-yl)-6-methyl-2-oxo-1,2,3,4-tetrahydropyrimidine-5-carboxamide] |
| 97 | COc1cccc(CNC(=O)c2cc(C3NC(=O)NC(C)=C3C(=O)Nc3ccc4[nH]ncc4c3)ccc2F)c1 (stereo not drawn) [Example E18, 4-(4-fluoro-3-((3-methoxybenzyl)carbamoyl)phenyl)-N-(1H-indazol-5-yl)-6-methyl-2-oxo-1,2,3,4-tetrahydropyrimidine-5-carboxamide] |
| 1900 | CC1=C(C(=O)Nc2ccc3[nH]ncc3c2)C(c2ccc(F)c(C(=O)NCc3cc(C(F)(F)F)cc(C(F)(F)F)c3)c2)NC(=O)N1 (stereo not drawn) [Example E13, 4-(3-((3,5-bis(trifluoromethyl)benzyl)carbamoyl)-4-fluorophenyl)-N-(1H-indazol-5-yl)-6-methyl-2-oxo-1,2,3,4-tetrahydropyrimidine-5-carboxamide] |
| 50 | COc1ccc(CNC(=O)c2cc(C3NC(=O)NC(C)=C3C(=O)Nc3ccc4[nH]ncc4c3)ccc2F)cc1 (stereo not drawn) [Example E06, 4-(4-fluoro-3-((4-methoxybenzyl)carbamoyl)phenyl)-N-(1H-indazol-5-yl)-6-methyl-2-oxo-1,2,3,4-tetrahydropyrimidine-5-carboxamide] |
| 150 | CC1=C(C(=O)Nc2ccc3[nH]ncc3c2)C(c2ccc(F)c(C(=O)NCc3ncccc3C)c2)NC(=O)N1 (stereo not drawn) [Example E15, 4-(4-fluoro-3-(((3-methylpyridin-2-yl)methyl)carbamoyl)phenyl)-N-(1H-indazol-5-yl)-6-methyl-2-oxo-1,2,3,4-tetrahydropyrimidine-5-carboxamide] |
| 190 | CNC(=O)c1cc(C2NC(=O)NC(C)=C2C(=O)Nc2ccc3[nH]ncc3c2)ccc1F (stereo not drawn) [Example E12, 4-(4-fluoro-3-(methylcarbamoyl)phenyl)-N-(1H-indazol-5-yl)-6-methyl-2-oxo-1,2,3,4-tetrahydropyrimidine-5-carboxamide] |
| 78 | CC1=C(C(=O)Nc2ccc3[nH]ncc3c2)C(c2ccc(F)cc2)NC(=O)N1 (stereo not drawn) [GSK180736A, reference compound] |
| 23 | CC1=C(C(=O)Nc2ccc3[nH]ncc3c2)C(c2ccc(F)c(C(=O)NCCc3ccccn3)c2)NC(=O)N1 (stereo not drawn) [Example E03, 4-(4-fluoro-3-((2-(pyridin-2-yl)ethyl)carbamoyl)phenyl)-N-(1H-indazol-5-yl)-6-methyl-2-oxo-1,2,3,4-tetrahydropyrimidine-5-carboxamide] |
| 5800 | CC1=C(C(=O)Nc2ccc3[nH]ncc3c2)C(c2ccc(F)c(C(=O)NCc3c(C)cccc3C)c2)NC(=O)N1 (stereo not drawn) [Example E10, 4-(3-((2,6-dimethylbenzyl)carbamoyl)-4-fluorophenyl)-N-(1H-indazol-5-yl)-6-methyl-2-oxo-1,2,3,4-tetrahydropyrimidine-5 carboxamide] |
| 69 | CC1=C(C(=O)Nc2ccc3[nH]ncc3c2)C(c2ccc(F)c(C(=O)NCc3ccccc3)c2)NC(=O)N1 (stereo not drawn) [Example E16, 4-(3-(benzylcarbamoyl)-4-fluorophenyl)-N-(1H-indazol-5-yl)-6-methyl-2-oxo-1,2,3,4-tetrahydropyrimidine-5-carboxamide] |
| 400 | CC1=C(C(=O)Nc2ccc3[nH]ncc3c2)C(c2ccc(F)c(CC(=O)NCc3c(C(F)(F)F)cccc3C(F)(F)F)c2)NC(=O)N1 (stereo not drawn) [Example E29, 4-(3-(2-((2,6-bis(trifluoromethyl)benzyl)amino)-2-oxoethyl)-4-fluorophenyl)-N-(1H-indazol-5-yl)-6-methyl-2-oxo-1,2,3,4-tetrahydropyrimidine-5-carboxamide] |
| 21 | CC1=C(C(=O)Nc2ccc3[nH]ncc3c2)C(c2ccc(F)c(C(=O)NCc3cccc(F)c3)c2)NC(=O)N1 (stereo not drawn) [Example E04, 4-(4-fluoro-3-((3-fluorobenzyl)carbamoyl)phenyl)-N-(1H-indazol-5-yl)-6-methyl-2-oxo-1,2,3,4-tetrahydropyrimidine-5-carboxamide] |
| 290 | CC1=C(C(=O)Nc2ccc3[nH]ncc3c2)C(c2ccc(F)c(C(=O)NCCc3c(C)cccc3C)c2)NC(=O)N1 (stereo not drawn) [Example E14, 4-(3-((2,6-dimethylphenethyl)carbamoyl)-4-fluorophenyl)-N-(1H-indazol-5-yl)-6-methyl-2-oxo-1,2,3,4-tetrahydropyrimidine-5-carboxamide] |
| 11 | CC1=C(C(=O)Nc2ccc3[nH]ncc3c2)C(c2ccc(F)c(C(=O)NCc3ccccn3)c2)NC(=O)N1 (stereo not drawn) [Example E01, 4-(4-fluoro-3-((pyridin-2-ylmethyl)carbamoyl)phenyl)-N-(1H-indazol-5-yl)-6-methyl-2-oxo-1,2,3,4-tetrahydropyrimidine-5-carboxamide] |
